Experiments:
Type in all cases: in vivo
[1] = system: Myzus persicae; experiment: Myzus persicae spray test; settings: in Brassica rapa, foliar, 120 h; for mortality at 100 g/ha: read-out: activity (mortality), application rate 100 g/ha, spray, Chinese cabbage leaf disks, after 5 days
Summary of the method: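 Aphid mortality in % was assessed 5 days after spraying; leaf disks of Brassica pekinensis carrying mixed-instar green peach aphids were treated. Spray preparation: active compound in acetone plus dimethylformamide, diluted with emulsifier-containing water (1000 ppm).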

[2] = system: Spodoptera frugiperda; experiment: Spodoptera frugiperda spray test; settings: in Zea mays, 168 h, read-out: activity (mortality)
Summary of the method: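 Percent kill of fall armyworm caterpillars was assessed 7 days after infesting dried, treated maize leaf sections. Treatment was a spray of compound in acetone/dimethylformamide, diluted with water containing emulsifier at 1000 ppm.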

[3] = system: Diabrotica balteata; experiment: Diabrotica balteata spray test; settings: 168 h, wheat seeds, larvae, after 7 days, read-out: activity (efficacy: 100% means all seedlings have grown up like in the untreated, uninfected control); for pest or weed control at 32 µg/disc, 100 g/ha: application rate 100 g/ha (=32 μg/well); for pest or weed control at 160 µg/disc, 500 g/ha: application rate 500 g/ha (=160 μg/well)
Summary of the method: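 Efficacy (%) was scored 7 days after spraying, with 100% meaning growth like the untreated, uninfected control and 0% meaning no seedling grew. Spray solutions of compound in acetone/DMF with emulsifier-containing water went onto 1-day-germinated wheat seeds, and each unit was then infested with 10-20 banded cucumber beetle larvae.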

[4] = system: Ctenocephalides felis; experiment: Ctenocephalides felis in-vitro contact test, adult cat flea (CTECFE Cont); settings: application rate 5 μg/cm^2 (=500 g/ha), adult cat fleas, after 48 hours, read-out: activity (efficacy: 100% means all fleas are dead or moribund)
Summary of the method: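 Efficacy, as percent of fleas dead or moribund, was scored 48 h after adults (5-10 per tube) were placed in glass tubes whose walls carried dried compound at 5 μg/cm^2 (900 ppm solution). Moribund meant failing to climb away from a 45-50° C. hot plate within 5 min.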

[5] = system: Culex quinquefasciatus strain P00; experiment: Culex quinquefasciatus test (CULXFA surface treatment & contact assay); settings: exposure 30 minutes, 24 hours after contact, read-out: efficacy (mortality); for mortality at 20 mg/m2: surface concentration 20 mg/m^2, glazed tile; for mortality at 4 mg/m2: surface concentration 4 mg/m^2, glazed tile
Procedure: Culex quinquefasciatus Test (CULXFA Surface Treatment & Contact Assay) Solvent: Aceton+2000 ppm rapeseed oil methyl ester (RME)
In order to produce a sufficient, active ingredient containing solution it is necessary to solve the test compound in the solvent-mix (acetone at 2 mg/ml/RME 2 000 ppm). This solution is pipetted onto a glazed tile and after evaporation of the acetone, adult mosquitoes of the species Culex quinquefasciatus strain P00 are placed onto the dried surface. The exposure time is 30 minutes. Mortality in percent (%) is determined 24 hours after contact of the insects to the treated surface. 100% mortality means that all tested insects are dead, whereas 0% means that no insect died.

[6] = system: Rhipicephalus microplus; experiment: Rhipicephalus (Boophilus) microplus injection test (BOOPMI Inj); settings: 168 h, injection into adult engorged female ticks, egg deposition after 7 days, read-out: activity (efficacy: 100% means all eggs are infertile); for pest or weed control at 0.004 mg: application rate 4 μg/tick; for pest or weed control at 0.02 mg: application rate 20 μg/tick
Summary of the method: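 Compound in DMSO, 1 μL, injected abdominally into five adult engorged females, which were then held in a climate chamber. Read-out is egg fertility, scored from deposition at 7 days, with unclear eggs followed to hatching (~42 days); 0% means all eggs fertile, 100% all infertile.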

[7] = system: Rhipicephalus microplus; experiment: Rhipicephalus (Boophilus) microplus in-vitro contact test, larval cattle tick, strain Parkhurst (BOOPMI Cont); settings: application rate 5 μg/cm^2 (=500 g/ha), tick larvae, after 48 hours, read-out: activity (efficacy: 100% means all larvae are dead or moribund)
Summary of the method: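 After 48 h at 27° C. and 85% humidity, percent dead or moribund larvae was scored from negative geotactic behaviour. Larvae (20-50, Parkhurst strain, synthetic pyrethroid-resistant) were exposed in tubes coated with compound from acetone, 900 ppm corresponding to 5 μg/cm^2.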

Structure (SMILES)	mortality at 500 g/ha ([1]; read-out: activity (mortality), application rate 500 g/ha, spray, Chinese cabbage leaf disks, after 5 days)	mortality at 500 g/ha [2]	pest or weed control at 32 µg/disc, 100 g/ha [3]	pest or weed control at 160 µg/disc, 500 g/ha [3]	pest or weed control at 5 µg/cm2 [4]	mortality at 20 mg/m2 [5]	pest or weed control at 0.004 mg [6]	pest or weed control at 0.02 mg [6]	mortality at 100 g/ha [2]	mortality at 4 mg/m2 [5]	pest or weed control at 5 µg/cm2 [7]	mortality at 100 g/ha [1]
C[C@H](NC(=O)c1cc(Cl)cc(OC(F)(F)F)c1)c1ncnn1-c1cc(N)ccn1 [II-7]	100%	100%	100%	100%	90%	80 to 100%	100%	100%	–	–	–	–
C[C@H](NC(=O)c1cc(Cl)cc(SC(F)F)c1)c1ncnn1-c1ccc(C#N)cn1 [II-11]	–	100%	100%	100%	100%	80 to 100%	100%	100%	100%	80 to 100%	100%	–
C[C@H](NC(=O)c1cccc(Cl)n1)c1ncnn1-c1ccc(C#N)cn1 [II-9]	–	100%	100%	100%	–	80 to 100%	–	100%	83%	–	80%	–
C[C@H](NC(=O)c1cc(Br)cc(Br)c1)c1ncnn1-c1ccc(C#N)cn1 [II-13]	–	100%	100%	–	100%	80 to 100%	100%	100%	100%	–	100%	–
C[C@H](NC(=O)c1cc(C(F)(F)F)cc(C(F)(F)F)c1)c1ncnn1-c1ncc(Br)s1 [II-41]	–	–	100%	100%	–	80 to 100%	100%	100%	100%	80 to 100%	100%	–
C[C@H](NC(=O)c1cc(Cl)cc(C#N)c1)c1ncnn1-c1ccc(C#N)cn1 [II-57]	–	–	–	–	100%	80 to 100%	100%	100%	100%	80 to 100%	100%	90%
Cc1nc([C@H](C)NC(=O)c2cc(Cl)cc(Cl)c2)n(-c2cc(C#N)ccn2)n1 [II-17]	–	100%	100%	100%	100%	80 to 100%	100%	100%	–	–	90%	–
Cc1nc([C@H](C)NC(=O)c2cncc(C(F)(F)F)c2)n(-c2ccc(C#N)cn2)n1 [II-63]	–	–	100%	–	100%	80 to 100%	100%	100%	–	–	100%	100%
CC(=O)Nc1ccnc(-n2ncnc2[C@H](C)NC(=O)c2cc(Cl)cc(OC(F)(F)F)c2)c1 [II-22]	–	83%	–	100%	100%	80 to 100%	100%	100%	–	80 to 100%	80%	–
